Assay results reported in patent US11866518B2, “Bicyclic peptide ligands specific for TSLP” (BicycleTx Limited, priority 2020, dated 2024).
*1 amine or outer side, *2 acyl side, *3 side chain or, on linkers, in order; H or OH if unused. Where a SMILES comes first, the peptide text is derived from it. Bridges are numbered along the chain shown (N, C = ends). TATA = O=C(CC[*:1])N1CN(C(=O)CC[*:2])CN(C(=O)CC[*:3])C1

Columns and labels:
TSLP [1] = target: T1, TSLP (Homo sapiens, UniProt Q969D9); experiment: Human peripheral blood mononuclear cell assay (TSLP-induced CCL17/TARC); type: cell-based; parameters: host or cells: added to human PBMCs from healthy donors; settings: read-out: CCL17 % Inhibition @ 10 μM, […] TSLP
Protocol: Human peripheral blood mononuclear cells (PMBCs) were obtained from heparinized whole blood (healthy donors) by density gradient centrifugation using Lymphoprep (StemCell Technologies, Vancouver, BC) according to the manufacturers instructions. The PBMCs were washed twice with PBS containing 2 mM EDTA and 2% fetal calf serum (FCS) and reconstituted in RPMI containing 10% FCS and 2% PenStrep at a final concentration of 3 million cells/mL. This cell suspension (100 μL) was aliquoted into the wells of a 96-well flat bottom tissue culture plate. 5 μL of bicycle peptide or vehicle (0.1% DMSO in complete medium) was then added and mixed with 5 μL of TSLPvehicle (complete medium). […] The plate was incubated for 30 minutes are rt. 10 μL of this mixture was added to cells and the plate was incubated for 24 hours in a 10% CO2, humidified incubator at 37° C. The plate was centrifuged at 300×g for 5 min and the collected supernatants frozen at −20° C. for subsequent CCL17/TARC analysis.
CCL17/TARC was determined by MSD (MesoScale Discovery, Maryland, USA) according to the manufacturer's instructions.

TSLP [2] = target: T1, TSLP; experiment: Human TSLP Surface Plasmon Resonance (SPR) binding assay; parameters: The resulting construct spCD33-6×HN-TEV-hTSLP(29-159)-Avi; 6xHN tag with TEV site (N, cleaved yes); made in house; host or cells: Expi293F cells; settings: biotinylated human TSLP immobilized on streptavidin chip; 20° C.; steady-state or kinetic 1:1 fit; read-out: hTSLP SPR Kd

T1 sequence (Q969D9 29-159): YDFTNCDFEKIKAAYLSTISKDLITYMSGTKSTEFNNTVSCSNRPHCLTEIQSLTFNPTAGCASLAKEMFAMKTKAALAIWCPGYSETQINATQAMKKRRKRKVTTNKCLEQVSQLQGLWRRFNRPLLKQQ

Structure (SMILES) | inhibition at 10 µM (TSLP [1]) | Kd (TSLP [2])
CC(C)C[C@@H]1NC(=O)[C@H](Cc2c[nH]c3ccccc23)NC(=O)[C@H](Cc2c[nH]c3ccccc23)NC(=O)[C@H](CC(=O)O)NC(=O)[C@H](CO)NC(=O)[C@@H]2CSCCC(=O)N3CN(CN(C3)C(=O)CCSC[C@H](NC(=O)[C@@H]3CCCN3C(=O)[C@H](C)NC(=O)[C@@H](N)CCCNC(=N)N)C(=O)N3CCC[C@H]3C(=O)N[C@@H](CC(=O)O)C(=O)N[C@@H](CC(C)C)C(=O)N[C@@H](CC(=O)O)C(=O)N3CCC[C@H]3C(=O)N[C@@H](Cc3c[nH]c4ccccc34)C(=O)N[C@@H]([C@@H](C)O)C(=O)N2)C(=O)CCSC[C@@H](C(=O)N[C@@H](C)C(N)=O)NC1=O [Example 187, RAP-(SEQ ID NO: 136)-A] (H-RAPCPDLDPWTCSDWWLCA-NH2; linker 4-12-18 via TATA; N-terminus and C-terminus assumed) | 11% | 86 nM
CC(=O)N[C@@H](C)C(=O)N[C@H]1CSCCC(=O)N2CN3CN(C2)C(=O)CCSC[C@@H](C(=O)N2CCC[C@H]2C(=O)N[C@@H](CC(C)C)C(=O)N[C@@H](CC(=O)O)C(N)=O)NC(=O)[C@H](Cc2ccccc2)NC(=O)CNC(=O)[C@H](CCCNC(=N)N)NC(=O)[C@H](Cc2c[nH]c4ccccc24)NC(=O)[C@H](CSCCC3=O)NC(=O)[C@H](CC(=O)O)NC(=O)[C@H](CCC(=O)O)NC(=O)[C@H](CC(C)C)NC(=O)[C@H](Cc2c[nH]c3ccccc23)NC(=O)[C@H](CCC(N)=O)NC1=O [Example 53, Ac-A-(SEQ ID NO: 38)-PLD] | -2% | 43 nM
CC(C)C[C@@H]1NC(=O)[C@H](Cc2c[nH]c3ccccc23)NC(=O)[C@H](Cc2c[nH]c3ccccc23)NC(=O)[C@H](CC(N)=O)NC(=O)[C@@H]2CCCN2C(=O)[C@@H]2CSCCC(=O)N3CN(CN(C3)C(=O)CCSC[C@H](NC(=O)[C@@H]3CCCN3C(=O)[C@H](Cc3c[nH]cn3)NC(=O)[C@H](C)N)C(=O)N[C@@H](C)C(=O)N[C@@H](CC(=O)O)C(=O)N[C@@H](CC(C)C)C(=O)N[C@@H](CC(=O)O)C(=O)N3CCC[C@H]3C(=O)N[C@@H](Cc3c[nH]c4ccccc34)C(=O)N[C@@H]([C@@H](C)O)C(=O)N2)C(=O)CCSC[C@@H](C(=O)N[C@@H](C)C(N)=O)NC1=O [Example 165, AHP-(SEQ ID NO: 123)-A] (H-AHPCADLDPWTCPNWWLCA-NH2; linker 4-12-18 via TATA; N-terminus and C-terminus assumed) | 33% | 30 nM
CC(C)C[C@@H]1NC(=O)[C@H](Cc2c[nH]c3ccccc23)NC(=O)[C@@H]2CSCCC(=O)N3CN(CN(C3)C(=O)CCSC[C@@H](C(=O)N[C@@H](C)C(N)=O)NC(=O)[C@H](CO)NC1=O)C(=O)CCSC[C@H](NC(=O)[C@H](C)N)C(=O)N[C@@H](CC(=O)O)C(=O)N[C@@H](Cc1c[nH]c3ccccc13)C(=O)N[C@@H](Cc1c[nH]cn1)C(=O)N[C@@H](Cc1c[nH]c3ccccc13)C(=O)N[C@@H](CCC(=O)O)C(=O)N[C@@H](Cc1ccc(O)cc1)C(=O)N[C@@H](CC(=O)O)C(=O)N2 [Example 199, A-(SEQ ID NO: 144)-A] | -3% | 81 nM
CC(C)C[C@@H]1NC(=O)[C@H](Cc2c[nH]c3ccccc23)NC(=O)[C@H](Cc2c[nH]c3ccccc23)NC(=O)[C@H](CO)NC(=O)[C@H](CC(=O)O)NC(=O)[C@@H]2CSCCC(=O)N3CN(CN(C3)C(=O)CCSC[C@H](NC(=O)[C@@H](NC(=O)[C@H](Cc3c[nH]cn3)NC(=O)[C@@H](N)CO)C(C)C)C(=O)N[C@@H](CCCNC(=N)N)C(=O)N[C@@H](CC(=O)O)C(=O)N[C@@H](CC(C)C)C(=O)N[C@@H](CC(=O)O)C(=O)N3CCC[C@H]3C(=O)N[C@@H](Cc3c[nH]c4ccccc34)C(=O)N[C@@H]([C@@H](C)O)C(=O)N2)C(=O)CCSC[C@@H](C(=O)N[C@@H](C)C(N)=O)NC1=O [Example 188, SHV-(SEQ ID NO: 137)-A] (H-SHVCRDLDPWTCDSWWLCA-NH2; linker 4-12-18 via TATA; N-terminus and C-terminus assumed) | -4% | 72 nM
CC(=O)N[C@H]1CSCCC(=O)N2CN3CN(C2)C(=O)CCSC[C@H](NC(=O)[C@H](CC(=O)O)NC(=O)[C@H](CCC(=O)O)NC(=O)[C@H](CC(C)C)NC(=O)[C@H](Cc2c[nH]c4ccccc24)NC(=O)[C@H](CCC(N)=O)NC1=O)C(=O)N[C@@H](Cc1c[nH]c2ccccc12)C(=O)N[C@@H](CCCNC(=N)N)C(=O)NCC(=O)N[C@@H](Cc1ccc(Cl)c(Cl)c1)C(=O)N[C@H](C(N)=O)CSCCC3=O [Example 11, Ac-(SEQ ID NO: 9)] | 43% | 5.8 nM
CC(C)C[C@@H]1NC(=O)[C@H](Cc2c[nH]c3ccccc23)NC(=O)[C@@H]2CSCCC(=O)N3CN(CN(C3)C(=O)CCSC[C@H](NC(=O)[C@H](CC(=O)O)NC(=O)[C@H](Cc3c[nH]cn3)NC(=O)[C@@H](N)CC(=O)O)C(=O)N[C@@H]([C@@H](C)O)C(=O)N[C@@H](Cc3c[nH]c4ccccc34)C(=O)N[C@@H](CC(N)=O)C(=O)N[C@@H](Cc3c[nH]c4ccccc34)C(=O)N[C@@H](CCC(=O)O)C(=O)N[C@@H](Cc3ccc(O)cc3)C(=O)N[C@@H](CC(=O)O)C(=O)N2)C(=O)CCSC[C@@H](C(=O)N[C@@H](C)C(N)=O)NC(=O)[C@H](CC(=O)O)NC1=O [Example 200, DHD-(SEQ ID NO: 145)-A] (H-DHDCTWNWEYDCWLDCA-NH2; linker 4-12-16 via TATA; N-terminus and C-terminus assumed) | -42% | 68 nM
CC(C)C[C@@H]1NC(=O)[C@H](Cc2c[nH]c3ccccc23)NC(=O)[C@H](Cc2c[nH]c3ccccc23)NC(=O)[C@H](CO)NC(=O)[C@H](CO)NC(=O)[C@@H]2CSCCC(=O)N3CN(CN(C3)C(=O)CCSC[C@@H](C(=O)N[C@@H](C)C(N)=O)NC1=O)C(=O)CCSC[C@H](NC(=O)[C@H](C)N)C(=O)N[C@@H](CCCNC(=N)N)C(=O)N[C@@H](CC(=O)O)C(=O)N[C@@H](CC(C)C)C(=O)N[C@@H](CC(=O)O)C(=O)N1CCC[C@H]1C(=O)N[C@@H](Cc1c[nH]c3ccccc13)C(=O)N[C@@H]([C@@H](C)O)C(=O)N2 [Example 164, A-(SEQ ID NO: 122)-A] | 0% | 98 nM
CC(C)C[C@@H]1NC(=O)[C@H](Cc2c[nH]c3ccccc23)NC(=O)[C@H](C(C)C)NC(=O)[C@@H](NC(=O)[C@@H]2CCCN2C(=O)[C@@H]2CCCN2C(=O)[C@@H](N)CO)CSCCC(=O)N2CN3CN(C2)C(=O)CCSC[C@H](NC(=O)[C@H](CC(=O)O)NC(=O)[C@H](CC(=O)O)NC1=O)C(=O)N[C@@H](Cc1c[nH]c2ccccc12)C(=O)N[C@@H](CCCNC(=N)N)C(=O)NCC(=O)N[C@@H](Cc1ccccc1)C(=O)N[C@H](C(=O)N[C@@H](C)C(N)=O)CSCCC3=O [Example 73, SPP-(SEQ ID NO: 54)-A] (H-SPPCVWLDDCWRGFCA-NH2; linker 4-10-15 via TATA; N-terminus and C-terminus assumed) | -11% | 85 nM
CC(C)C[C@@H]1NC(=O)[C@H](Cc2c[nH]c3ccccc23)NC(=O)[C@H](CCC(N)=O)NC(=O)[C@@H](NC(=O)[C@H](C)N)CSCCC(=O)N2CN3CN(C2)C(=O)CCSC[C@H](NC(=O)[C@H](CC(=O)O)NC(=O)[C@H](CCC(=O)O)NC1=O)C(=O)N[C@@H](Cc1c[nH]c2ccccc12)C(=O)N[C@@H](CCCNC(=N)N)C(=O)NCC(=O)N[C@@H](Cc1ccccc1)C(=O)N[C@H](C(=O)N[C@@H](CO)C(=O)N[C@@H](CO)C(=O)N[C@@H](CO)C(=O)N[C@@H](CC(=O)O)C(=O)N[C@@H](CCC(N)=O)C(=O)N[C@@H](CO)C(N)=O)CSCCC3=O [Example 59, A-(SEQ ID NO: 38)-SSSDQS] | 2% | 52 nM
CC(C)C[C@H](NC(=O)CNC(=O)[C@H](CC(=O)O)NC(=O)[C@H](C)NC(=O)[C@@H]1CSCCC(=O)N2CN3CN(C2)C(=O)CCSC[C@H](NC(=O)[C@H]([C@@H](C)O)NC(=O)[C@H](Cc2c[nH]c4ccccc24)NC(=O)[C@@H]2CCCN2C(=O)[C@H](CC(=O)O)NC(=O)[C@H](CC(C)C)NC(=O)[C@H](CC(=O)O)NC(=O)[C@H](CCCNC(=N)N)NC(=O)[C@@H](NC(=O)[C@H](C)N)CSCCC3=O)C(=O)N[C@@H](CO)C(=O)N[C@@H](CO)C(=O)N[C@@H](Cc2c[nH]c3ccccc23)C(=O)N[C@@H](Cc2c[nH]c3ccccc23)C(=O)N[C@@H](CC(C)C)C(=O)N1)C(=O)N[C@@H](Cc1ccc(O)cc1)C(=O)N[C@@H](CC(=O)O)C(=O)N[C@@H](C)C(N)=O [Example 193, A-(SEQ ID NO: 122)-ADGLYDA] | 47% | 50 nM
CC(=O)N[C@H]1CSCCC(=O)N2CN3CN(C2)C(=O)CCSC[C@H](NC(=O)[C@H](CC(=O)O)NC(=O)[C@H](CCC(=O)O)NC(=O)[C@H](CC(C)C)NC(=O)[C@H](Cc2c[nH]c4ccccc24)NC(=O)[C@H](CCC(N)=O)NC1=O)C(=O)N[C@@H](Cc1c[nH]c2ccccc12)C(=O)N[C@@H](CCCNC(=N)N)C(=O)NCC(=O)N[C@@H](Cc1cccc(C)c1)C(=O)N[C@H](C(N)=O)CSCCC3=O [Example 74, Ac-(SEQ ID NO: 55)] | 43% | 91 nM
